Measured values as given in patent US20100056516A1 (priority 2006, published 2010).

Legend:
HIV integrase = HIV integrase (Human immunodeficiency virus type 1 group M subtype B, UniProt P04585); assay: integrase strand transfer assay (STA); format: biochemical; conditions: integrase strand transfer; read-out: IC50 in the STA assay
HXB2 virus = assay: microbe, parasite or virus in culture; format: cell-based, HIV; conditions: Human immunodeficiency virus 1, HXB2, HeLaP4-2, read-out: antiviral IC50 (SCIA-B)
Description: An assay for measuring the inhibition of acute HIV infection with HeLa P4-2 cells in a single cycle infectivity assay (SCIA-A) was conducted in accordance with Joyce, J. G., et al., J. Biol. Chem., 2002, 277, 45811, Hazuda, D. J. et al., Science, 2000, 287, 646, and Kimpton, J. et al, J. Virol. 1992, 66, 2232. Infectious virus was produced by transfecting 293T cells with HIV proviral DNA in which the integrase gene was derived from a IIIB isolate and the remainder of the HIV genome was derived from the NL4-3 isolate.
This assay B for measuring the inhibition of acute HIV infection with HeLa P4-2 cells in a single cycle infectivity assay (SCIA-B) is essentially the same as Assay A described above, except that HXB2 virus is employed instead of the IIIb isolate.

SMILES | IC50 (HIV integrase) | IC50 (HXB2 virus)
O=c1c(-c2ccccc2)c(O)c2cc(-c3ccccc3-n3cccn3)cnc2n1O [Example 53, 1,4-Dihydroxy-3-phenyl-6-[2-(1H-pyrazol-1-yl)phenyl]-1,8-naphthyridin-2(1H)-one] | < 50 µM | < 100 µM
O=c1c(-c2ccccc2)c(O)c2cc(-c3cccc(-c4ccccc4)c3)cnc2n1O [Example 54, 6-Biphenyl-3-yl-1,4-dihydroxy-3-phenyl-1,8-naphthyridin-2(1H)-one] | < 50 µM | < 100 µM
O=c1c(-c2ccccc2)c(O)c2cc(/C=C/c3ccccc3)cnc2n1O [Example 55, 1,4-Dihydroxy-3-phenyl-6-[(E)-2-phenylvinyl]-1,8-naphthyridin-2(1H)-one] | < 50 µM | < 100 µM
O=c1c(-c2ccccc2)c(O)c2cc(-c3ccc4ccccc4c3)cnc2n1O [Example 56, 1,4-Dihydroxy-6-(2-naphthyl)-3-phenyl-1,8-naphthyridin-2(1H)-one] | < 50 µM | < 100 µM
CCOC(=O)c1c(O)c2cc(-c3cccnc3)cnc2n(O)c1=O [Example 58, Ethyl 1,4-dihydroxy-2-oxo-6-pyridin-3-yl-1,2-dihydro-1,8-naphthyridine-3-carboxylate] | < 50 µM | < 100 µM
CCOC(=O)c1c(O)c2cc(-c3cccc(C#N)c3)cnc2n(O)c1=O [Example 60, Ethyl 6-(3-cyanophenyl)-1,4-dihydroxy-2-oxo-1,2-dihydro-1,8-naphthyridine-3-carboxylate] | < 50 µM | > 100 µM
CCOC(=O)c1c(O)c2cc(-c3ccccc3OC)cnc2n(O)c1=O [Example 61, Ethyl 1,4-dihydroxy-6-(2-methoxyphenyl)-2-oxo-1,2-dihydro-1,8-naphthyridine-3-carboxylate] | < 50 µM | < 100 µM
CCOC(=O)c1c(O)c2cc(-c3cccc(OC)c3)cnc2n(O)c1=O [Example 62, Ethyl 1,4-dihydroxy-6-(3-methoxyphenyl)-2-oxo-1,2-dihydro-1,8-naphthyridine-3-carboxylate] | < 50 µM | < 100 µM
CCOC(=O)c1c(O)c2cc(Cc3ccccc3)cnc2n(O)c1=O [Example 63, Ethyl 6-benzyl-1,4-dihydroxy-2-oxo-1,2-dihydro-1,8-naphthyridine-3-carboxylate] | < 50 µM | < 100 µM
CCOC(=O)c1c(O)c2cc(-c3cccc(-c4ccccc4)c3)cnc2n(O)c1=O [Example 64, Ethyl 6-biphenyl-3-yl-1,4-dihydroxy-2-oxo-1,2-dihydro-1,8-naphthyridine-3-carboxylate] | < 50 µM | < 100 µM
CCOC(=O)c1c(O)c2cc(-c3cc(C)cc(C)c3)cnc2n(O)c1=O [Example 65, Ethyl 6-(3,5-dimethylphenyl)-1,4-dihydroxy-2-oxo-1,2-dihydro-1,8-napthyridine-3-carboxylate] | < 50 µM | < 100 µM
O=c1c(Cc2ccccc2)c(O)c2cc(-c3ccccc3)cnc2n1O [Example 67, 3-Benzyl-1,4-dihydroxy-6-phenyl-1,8-naphthyridin-2(1H)-one] | < 50 µM | < 100 µM
Nc1cccc(-c2cnc3c(c2)c(O)cc(=O)n3O)c1 [Example 68, 6-(3-Aminophenyl)-1,4-dihydroxy-1,8-naphthyridin-2(1H)-one] | < 50 µM | < 100 µM
CS(=O)(=O)Nc1cccc(-c2cnc3c(c2)c(O)cc(=O)n3O)c1 [Example 69, N-[3-(5,8-Dihydroxy-7-oxo-7,8-dihydro-1,8-naphthyridin-3-yl)phenyl]methane-sulfonamide] | < 50 µM | < 100 µM
CCOC(=O)c1c(O)c2cc(C(C)=O)cnc2n(O)c1=O [Example 70, ethyl 6-acetyl-1,4-dihydroxy-2-oxo-1,2-dihydro-1,8-naphthyridine-3-carboxylate] | < 50 µM | < 100 µM
CC(=O)c1cnc2c(c1)c(O)c(-c1ccccc1)c(=O)n2O [Example 71, 6-acetyl-1,4-dihydroxy-3-phenyl-1,8-naphthyridin-2(1H)-one] | < 50 µM | < 100 µM
O=c1c(Br)c(O)c2cc(-c3ccncc3)cnc2n1O [Example 72, 3-Bromo-1,4-dihydroxy-6-pyridin-4-yl-1,8-naphthyridin-2(1H)-one] | < 50 µM | < 100 µM
CCc1cnc2c(c1)c(O)c(-c1ccccc1)c(=O)n2O [Example 73, 6-Ethyl-1,4-dihydroxy-3-phenyl-1,8-naphthyridin-2(1H)-one] | < 50 µM | < 100 µM

SMILES | IC50 (HIV integrase) | IC50 (HXB2 virus)
CC(Br)Cc1cnc2c(c1)c(O)c(-c1ccccc1)c(=O)n2O (stereo not shown) [Example 74, 6-(2-Bromopropyl)-1,4-dihydroxy-3-phenyl-1,8-naphthyridin-2(1H)-one] | < 50 µM | < 100 µM
O=c1c(-c2ccccc2)c(O)c2cc(-c3cccs3)cnc2n1O [Example 75, 6-(thien-2-yl)-1,4-dihydroxy-3-phenyl-1,8-napthyridin-2(1H)-one] | < 50 µM | < 100 µM
CC(NCc1cccc(Cl)c1)c1cnc2c(c1)c(O)c(-c1ccccc1)c(=O)n2O (stereo not shown) [Example 76, 6-{1-[(3-Chlorobenzyl)amino]ethyl}-1,4-dihydroxy-3-phenyl-1,8-napthyridin-2(1H)-one] | < 50 µM | < 100 µM
CCOC(=O)c1c(O)c2cc(C(=O)NCc3ccccc3)cnc2n(O)c1=O [Example 77, Ethyl 6-[(benzylamino)carbonyl]-1,4-dihydroxy-2-oxo-1,2-dihydro-1,8-naphthyridine-3-carboxylate] | < 50 µM | < 100 µM
CCOC(=O)c1c(O)c2cc(C(=O)NCc3cccc(OC)c3)cnc2n(O)c1=O [Example 78, Ethyl 1,4-dihydroxy-6-{[3-methoxybenzyl)amino] carbonyl}-2-oxo-1,2-dihydro-1,8-naphthyridine-3-carboxylate] | < 50 µM | < 100 µM
CCOC(=O)c1c(O)c2cc(C(=O)NCc3ccccc3OC)cnc2n(O)c1=O [Example 79, Ethyl 1,4-dihydroxy-6-{[2-methoxybenzyl)amino] carbonyl}-2-oxo-1,2-dihydro-1,8-naphthyridine-3-carboxylate] | < 50 µM | < 100 µM
CCOC(=O)c1c(O)c2cc(C(=O)N(C)Cc3ccccc3)cnc2n(O)c1=O [Example 80, Ethyl 6-{[benzyl(methyl)amino]carbonyl}-1,4-dihydroxy-2-oxo-1,2-dihydro-1,8-naphthyridine-3-carboxylate] | < 50 µM | < 100 µM
CCOC(=O)c1c(O)c2cc(C(=O)N3CCCCC3CCc3ccccc3)cnc2n(O)c1=O (stereo not shown) [Example 82, Ethyl 1,4-dihydroxy-2-oxo-6-{[2-(2-phenylethyl)piperidin-1-yl]carbonyl}-1,2-dihydro-1,8-naphthyridine-3-carboxylate] | < 50 µM | < 100 µM
CCOC(=O)c1c(O)c2cc(C(=O)N3CCC(CCCc4ccccc4)CC3)cnc2n(O)c1=O [Example 83, Ethyl 1,4-dihydroxy-2-oxo-6-{[4-(3-phenylpropyl)piperidin-1-yl]carbonyl}-1,2-dihydro-1,8-naphthyridine-3-carboxylate] | < 50 µM | < 100 µM
CCOC(=O)c1c(O)c2cc(C(=O)N3CCC(CCc4ccccc4)CC3)cnc2n(O)c1=O [Example 84, Ethyl 1,4-dihydroxy-2-oxo-6-{[4-(2-phenylethyl)piperidin-1-yl]carbonyl}-1,2-dihydro-1,8-naphthyridine-3-carboxylate] | < 50 µM | < 100 µM
CCOC(=O)c1c(O)c2cc(C(=O)N3CCC(Cc4ccccc4)C3)cnc2n(O)c1=O (stereo not shown) [Example 85, Ethyl 6-[(3-benzylpyrrolidin-1-yl)carbonyl]-1,4-dihydroxy-2-oxo-1,2-dihydro-1,8-naphthyridine-3-carboxylate] | < 50 µM | < 100 µM
CCOC(=O)c1c(O)c2cc(C(=O)NC3CCCCC3)cnc2n(O)c1=O [Example 86, ethyl-6-[(cyclohexylamino)carbonyl]-1,4-dihydroxy-2-oxo-1,2-dihydro-1,8-naphthyridine-3-carboxylate] | < 50 µM | < 100 µM
O=C(NCc1ccccc1)c1cnc2c(c1)c(O)c(C(=O)NCc1ccccc1)c(=O)n2O [Example 87, N,N′-Dibenzyl-1,4-dihydroxy-2-oxo-1,2-dihydro-1,8-naphthyridine-3,6-dicarboxamide] | < 50 µM | < 100 µM
CCOC(=O)c1ccnc2c1c(O)cc(=O)n2O [Example 88, Ethyl 5,8-dihydroxy-7-oxo-7,8-dihydro-1,8-naphthyridine-4-carboxylate] | < 50 µM | < 100 µM
CCOC(=O)c1c(O)c2cc(Oc3ccc(N)cc3)cnc2n(O)c1=O [Example 89, Ethyl 6-(4-aminophenoxy)-1,4-dihydroxy-2-oxo-1,2-dihydro-1,8-naphthyridine-3-carboxylate] | < 50 µM | < 100 µM
CCOC(=O)c1c(O)c2cc(Oc3ccc(N(CC)CC)cc3)cnc2n(O)c1=O [Example 90, Ethyl 6-[4-(diethylamino)phenoxy]-1,4-dihydroxy-2-oxo-1,2-dihydro-1,8-naphthyridine-3-carboxylate] | < 50 µM | < 100 µM
COC(=O)c1cnc2c(c1)c(O)c(C(=O)NCc1ccccc1)c(=O)n2O [Example 91, Methyl 6-[(benzylamino)carbonyl]-5,8-dihydroxy-7-oxo-7,8-dihydro-1,8-naphthyridine-3-carboxylate] | < 50 µM | < 100 µM
